Data as given in patent publication EP1226131B1, “ISOXAZOLECARBOXAMIDE DERIVATIVES” (RECORDATI INDUSTRIA CHIMICA E FARMACEUTICA S.p.a., priority 1999, dated 2001).
Like-named read-outs stand apart in the source and are kept apart here.

Columns and labels:
α1a adrenergic receptor = biological target: T1, α1a adrenergic receptor (Homo sapiens, UniProt P35348); assay: Radioligand binding assay ([3H]prazosin) on cloned α1-adrenoceptor subtype, membranes of transfected cells
T1 sequence (P35348 1-466): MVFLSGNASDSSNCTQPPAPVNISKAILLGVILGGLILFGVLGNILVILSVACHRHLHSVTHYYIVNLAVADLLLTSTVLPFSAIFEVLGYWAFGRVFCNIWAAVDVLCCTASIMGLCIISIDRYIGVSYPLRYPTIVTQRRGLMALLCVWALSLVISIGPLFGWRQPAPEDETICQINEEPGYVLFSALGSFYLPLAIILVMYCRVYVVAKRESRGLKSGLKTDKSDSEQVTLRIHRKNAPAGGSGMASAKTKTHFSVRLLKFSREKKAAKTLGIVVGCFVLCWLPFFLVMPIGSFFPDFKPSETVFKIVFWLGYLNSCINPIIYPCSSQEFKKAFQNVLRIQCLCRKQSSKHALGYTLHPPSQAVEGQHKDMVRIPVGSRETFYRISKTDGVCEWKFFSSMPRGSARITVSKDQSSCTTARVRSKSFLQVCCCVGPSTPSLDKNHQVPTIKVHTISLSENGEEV
Protocol: (§1) Determination of affinity for cloned subtypes of the cloned α1-adrenoceptor was performed in membranes from cells transfected by electroporation with DNA expressing the genes encoding each α1-adrenoceptor subtype.
(§2) Non-specific binding was determined in the presence of 10 µM phentolamine. Incubation was stopped by addition of ice-cold Tris buffer and rapid filtration through 0.2%-polyethyleneimine pretreated Schleicher & Schuell GF52 filters. […] The homogenates were centrifuged at 40000 × g × 20 minutes and the membranes were resuspended in a small volume of ice-cold buffer containing Tris 5 mM and EDTA 5 mM (pH 7.4) and immediately frozen and stored at -70°C until use.

[1] = biological target: T2, recombinant α1d-adrenoceptor (Homo sapiens, UniProt P25100); assay: as above
T2 sequence (P25100 1-572): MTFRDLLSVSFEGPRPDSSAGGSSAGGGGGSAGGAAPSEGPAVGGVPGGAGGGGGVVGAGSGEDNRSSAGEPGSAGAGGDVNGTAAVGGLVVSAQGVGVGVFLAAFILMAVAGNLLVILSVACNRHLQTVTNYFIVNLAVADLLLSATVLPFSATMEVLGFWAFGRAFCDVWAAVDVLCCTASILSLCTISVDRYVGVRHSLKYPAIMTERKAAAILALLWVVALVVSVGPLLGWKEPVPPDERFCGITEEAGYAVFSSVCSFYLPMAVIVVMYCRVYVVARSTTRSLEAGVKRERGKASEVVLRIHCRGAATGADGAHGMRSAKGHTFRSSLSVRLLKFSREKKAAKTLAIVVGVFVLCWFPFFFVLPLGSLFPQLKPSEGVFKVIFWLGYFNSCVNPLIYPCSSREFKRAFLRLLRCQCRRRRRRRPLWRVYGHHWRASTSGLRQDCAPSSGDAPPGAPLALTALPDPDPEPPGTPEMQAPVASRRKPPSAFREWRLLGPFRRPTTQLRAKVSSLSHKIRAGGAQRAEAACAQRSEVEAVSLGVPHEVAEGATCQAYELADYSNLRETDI
Protocol: as §1, §2

[2] = biological target: T3, human 5-HT1A-serotoninergic receptor (Homo sapiens, UniProt P08908); assay: Radioligand binding assay ([3H]8-OH-DPAT) on membranes of transfected HeLa cells; conditions: human receptor in HeLa cells, read-out: Affinity (Ki, nM) 5-HT1A
T3 construct: expressed in transfected cells; host or cells: HeLa
T3 sequence (P08908 1-422): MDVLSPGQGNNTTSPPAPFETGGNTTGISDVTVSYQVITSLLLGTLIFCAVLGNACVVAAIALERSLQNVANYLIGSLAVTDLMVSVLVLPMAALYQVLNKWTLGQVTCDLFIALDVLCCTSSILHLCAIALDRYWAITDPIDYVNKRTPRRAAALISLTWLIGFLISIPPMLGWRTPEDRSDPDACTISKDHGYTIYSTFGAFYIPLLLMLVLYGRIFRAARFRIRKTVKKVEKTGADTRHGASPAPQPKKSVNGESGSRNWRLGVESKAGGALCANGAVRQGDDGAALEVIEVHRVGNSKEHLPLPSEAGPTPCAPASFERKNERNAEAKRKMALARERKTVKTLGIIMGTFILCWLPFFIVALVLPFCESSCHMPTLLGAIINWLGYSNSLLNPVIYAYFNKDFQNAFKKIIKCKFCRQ
Description: Data were expressed as mean of Ki.

α1L adrenoceptor = assay: Functional antagonism of noradrenaline-induced contractions of rabbit aorta pretreated with chloroethylclonidine; assay type: biochemical; conditions: functional affinity, NA-induced contractions
Protocol: Adult male New Zealand rabbits were sacrificed by cervical dislocation. The aorta was removed, placed in Krebs-Henseleit buffer and dissected free of adhering tissue.
Each antagonist concentration was tested using 2-3 aortic rings from different rabbits.
Dose ratios (i.e., the ratio between the concentrations of noradrenaline required to produce half-maximal response in the presence and in the absence of the test antagonist) were calculated at each concentration of the compounds.

[3] = system: urethral contractions (UP) induced by hypogastric-nerve stimulation (HYP); assay: Urethral contractions induced by hypogastric-nerve stimulation in anaesthetised dogs, i.v. administration; assay type: in vivo; conditions: Canis lupus familiaris, iv, dog, dose inhibiting by 50% urethral contractions induced by hypogastric-nerve stimulation, read-out: UP ID50 HYP
Protocol: The experiments were performed according to the method of Imagawa J. et al., J Pharmacol. Methods 22, 103-111 (1989), with substantial modifications, as follows: adult male beagle dogs, weighing 8-10 kg, were anaesthetised with pentobarbital sodium (30 mg/kg i.v. and 2 mg/kg/h i.v.), intubated and spontaneously ventilated with room air. In order to monitor systemic blood pressure (BP), a polyethylene (PE) catheter was introduced into the aortic arch through the left femoral artery. A collateral of the left femoral vein was cannulated for infusion of anaesthetic, and the right femoral vein was cannulated for administration of the compounds. For intraarterial (i.a.) injection of noradrenaline (NA), a PE catheter was introduced into the lower portion of the abdominal aorta via the right external iliac artery. Through such procedure, NA was selectively distributed to the lower urinary tract. A paramedian vertical suprapubic incision extending from the base of the pelvis to the mid-abdominal region was made and the bladder and the prostate were exposed. The bladder was manually emptied with a syringe. […] The distal end of the right or left branch of the nerve was placed on a bipolar platinum electrode. Prostatic urethral pressure was monitored with a Mikro-tip cathe[…]) introduced into the bladder via the external urethral meatus, and withdrawn until the pressure transducer was positioned in the prostatic region of the urethra. A ligature was secured between the neck of the bladder and urethra to isolate the response of the latter and to avoid any interaction with the bladder. Another ligature was put around the Mikro-tip catheter at the external meatus, to secure the catheter itself. […] Both i.a. injections of NA and stimulations of the hypogastric nerve were repeated 5 minutes after every dosing of test compound with intervals of about 5 minutes between two stimulations. […]

[4] = system: diastolic blood pressure (DBP); assay: Effect on diastolic blood pressure in anaesthetised dogs, i.v. administration; assay type: in vivo; conditions: dog, dose inducing a 25% decrease in diastolic blood pressure, one value spanning c3 and c4
Protocol: The experiments were performed according to the method of Imagawa J. et al., J Pharmacol. Methods 22, 103-111 (1989), with substantial modifications, as follows: adult male beagle dogs, weighing 8-10 kg, were anaesthetised with pentobarbital sodium (30 mg/kg i.v. and 2 mg/kg/h i.v.), intubated and spontaneously ventilated with room air. In order to monitor systemic blood pressure (BP), a polyethylene (PE) catheter was introduced into the aortic arch through the left femoral artery. A collateral of the left femoral vein was cannulated for infusion of anaesthetic, and the right femoral vein was cannulated for administration of the compounds. For intraarterial (i.a.) injection of noradrenaline (NA), a PE catheter was introduced into the lower portion of the abdominal aorta via the right external iliac artery. Through such procedure, NA was selectively distributed to the lower urinary tract. A paramedian vertical suprapubic incision extending from the base of the pelvis to the mid-abdominal region was made and the bladder and the prostate were exposed. The bladder was manually emptied with a syringe. […] The distal end of the right or left branch of the nerve was placed on a bipolar platinum electrode. Prostatic urethral pressure was monitored with a Mikro-tip catheter (5F) introduced into the bladder via the external urethral meatus, and withdrawn until the pressure transducer was positioned in the prostatic region of the urethra. A ligature was secured between the neck of the bladder and urethra to isolate the response of the latter and to avoid any interaction with the bladder. Another ligature was put around the Mikro-tip catheter at the external meatus, to secure the catheter itself. The hypogastric nerve stimulation was made with a train of rectangular pulses of 10-15 V, 10-30 Hz, width 5 msec, 8 sec duration.
After a stabilising period following the surgical procedure (30 minutes), in which arterial and prostatic urethral pressure were continuously monitored as basal values, i.a. administration of NA and stimulation of the hypogastric nerve were alternately made at intervals of 10 minutes.
The dose of NA and the parameter of hypogastric nerve stimulation chosen were such as to produce an increase of at least 100% in urethral pressure. The test compounds were administered i.v. in a cumulative manner with intervals of 15-20 min between administrations. Both i.a. injections of NA and stimulations of the hypogastric nerve were repeated 5 minutes after every dosing of test compound with intervals of about 5 minutes between two stimulations. […]

[5] = system: urethral contractions (UP) induced by noradrenaline (NA); assay: Urethral contractions induced by noradrenaline injection in anaesthetised dogs, i.v. administration; assay type: in vivo; conditions: dog; for ED50: Canis lupus familiaris, iv, dose inhibiting by 50% urethral contractions induced by noradrenaline, read-out: UP ID50 NA; for R1 (DBP/NA): ratio DBP ED25 / UP ID50 NA
Protocol: The experiments were performed according to the method of Imagawa J. et al., J Pharmacol. Methods 22, 103-111 (1989), with substantial modifications, as follows: adult male beagle dogs, weighing 8-10 kg, were anaesthetised with pentobarbital sodium (30 mg/kg i.v. and 2 mg/kg/h i.v.), intubated and spontaneously ventilated with room air. In order to monitor systemic blood pressure (BP), a polyethylene (PE) catheter was introduced into the aortic arch through the left femoral artery. A collateral of the left femoral vein was cannulated for infusion of anaesthetic, and the right femoral vein was cannulated for administration of the compounds. For intraarterial (i.a.) injection of noradrenaline (NA), a PE catheter was introduced into the lower portion of the abdominal aorta via the right external iliac artery. Through such procedure, NA was selectively distributed to the lower urinary tract. A paramedian vertical suprapubic incision extending from the base of the pelvis to the mid-abdominal region was made and the bladder and the prostate were exposed. The bladder was manually emptied with a syringe. […] The distal end of the right or left branch of the nerve was placed on a bipolar platinum electrode. Prostatic urethral pressure was monitored with a Mikro-tip cathe[…]) introduced into the bladder via the external urethral meatus, and withdrawn until the pressure transducer was positioned in the prostatic region of the urethra. A ligature was secured between the neck of the bladder and urethra to isolate the response of the latter and to avoid any interaction with the bladder. Another ligature was put around the Mikro-tip catheter at the external meatus, to secure the catheter itself. […] Both i.a. injections of NA and stimulations of the hypogastric nerve were repeated 5 minutes after every dosing of test compound with intervals of about 5 minutes between two stimulations. In order to compare the effects of the administered compound, dose/response curves were constructed by computing, at the peak effect, the percent decrease in diastolic blood pressure and the percent inhibition of the increase in urethral pressure induced by both types of stimulation used.

[6] = read-out: Affinity (Ki, nM) α1d, recombinant receptor, [3H]prazosin

Compound	Ki (α1a adrenergic receptor)	Ki [1]	further results
Cc1onc(-c2c(F)cccc2Cl)c1C(=O)NCCCN1CCN(c2ccccc2OCC(F)(F)F)CC1 [Example 12, 3-(2-Chloro-6-fluorophenyl)-5-methyl-N-{3-[4-[2-(2,2,2-trifluoroethoxy)phenyl)-1-piperazinyl]-propyl}-isoxazole-4-carboxamide]	0.16 nM	2.19 nM	–
Cc1onc(-c2ccccc2)c1C(=O)NCCCN1CCN(c2cc(Cl)ccc2OS(=O)(=O)C(F)(F)F)CC1 [Example 7, N-{3-[4-[(5-Chloro-2-trifluoromethanesulphonyloxy)-phenyl]-1-piperazinyl]-propyl}-5-methyl-3-phenylisoxazole-4-carboxamide]	0.918 nM	38.9 nM	Ki [2]: 1000 nM
COc1ccc(OCC(F)(F)F)cc1N1CCN(CCCNC(=O)c2c(-c3ccccc3)noc2C)CC1 [Example 4, N-{3-[4-[2-Methoxy-5-(2,2,2-trifluoroethoxy)phenyl]-1-piperazinyl]-propyl}-5-methyl-3-phenylisoxazole-4-carboxamide]	17 nM	128 nM	Ki [2]: > 1000 nM
Cc1onc(-c2ccccc2)c1C(=O)NCCCN1CCN(c2cc(Cl)ccc2O)CC1 [Example 2, N-{3-[4-(5-Chloro-2-hydroxyphenyl)-1-piperazinyl]-propyl}-5-methyl-3-phenylisoxazole-4-carboxamide]	1.16 nM	25.2 nM	–
Cc1onc(-c2c(F)cccc2Cl)c1C(=O)NCCCN1CCN(c2ccc(F)cc2OCC(F)(F)F)CC1 [Example 9, 3-(2-Chloro-6-fluorophenyl)-N-{3-[4-[4-fluoro-2-(2,2,2-trifluoroethoxy)-phenyl]-1-piperazinyl]-propyl}-5-methylisoxazole-4-carboxamide]	0.4 nM	6.15 nM	–
Cc1onc(-c2ccccc2Cl)c1C(=O)NCCCN1CCN(c2ccc(F)cc2OCC(F)(F)F)CC1 [Example 11]	0.12 nM	4.66 nM	–
O=C(NCCCN1CCN(c2ccc(F)cc2OCC(F)(F)F)CC1)c1conc1-c1ccc(F)cc1 [Example 8, 3-(4-Fluorophenyl)-N-{3-[4-[4-fluoro-2-(2,2,2-trifluoroethoxy)-phenyl]-1-piperazinyl]-propyl}-isoxazole-4-carboxamide]	0.11 nM	25.8 nM	–
Cc1onc(-c2c(Cl)cccc2Cl)c1C(=O)NCCCN1CCN(c2ccc(F)cc2OCC(F)(F)F)CC1 [Example 10, 3-(2,6-Dichlorophenyl)-N-{3-[4-[4-fluoro-2-(2,2,2-trifluoroethoxy)-phenyl]-1-piperazinyl]-propyl}-5-methylisoxazole-4-carboxamide.]	2.28 nM	38.6 nM	–
Cc1onc(-c2ccccc2)c1C(=O)NCCCN1CCN(c2cc(F)ccc2OCC(F)(F)F)CC1 [Example 5, N-{3-[4-[5-Fluoro-2-(2,2,2-trifluoroethoxy)-phenyl]-1-piperazinyl]-propyl}-5-methyl-3-phenylisoxazole-4-carboxamide]	–	–	pKb (α1L adrenoceptor): 8.79; ED50 [3]: 3.4 µg/kg; DBP ED25 [4]: 197.0 µg/kg; ED50 [5]: 2.7 µg/kg; R1 (DBP/NA) [5]: 73
COc1ccc(Cl)cc1N1CCN(CCCNC(=O)c2c(-c3ccccc3)noc2C)CC1 [Example 1, N-{3-[4-(5-Chloro-2-methoxyphenyl)-1-piperazinyl]-propyl}-5-methyl-3-phenylisoxazole-4-carboxamide]	–	–	Ki [1, 6]: 2.72 nM; DBP ED25 [4]: 345.4 µg/kg; ED50 [5]: 3.4 µg/kg; R1 (DBP/NA) [5]: 101.6
Cc1onc(-c2ccccc2)c1C(=O)NCCCN1CCN(c2ccc(F)cc2OCC(F)(F)F)CC1 [Example 6, N-{3-[4-[4-Fluoro-2-(2,2,2-trifluoroethoxy)-phenyl]-1-piperazinyl]-propyl}-5-methyl-3-phenylisoxazole-4-carboxamide]	–	–	Ki [1, 6]: 18.9 nM; ED50 [3]: 4.5 µg/kg; DBP ED25 [4]: 196.7 µg/kg; ED50 [5]: 2.4 µg/kg; R1 (DBP/NA) [5]: 82
